From patent US10653779B2, “Formulations with reduced oxidation” (Genentech, Inc., priority 2013, dated 2020)

Key:
[1] = H2O2 generation by free L-Trp upon light exposure for 3 hours (Amplex assay); format: physicochemical
Procedure: It was previously reported that L-Trp produced H2O2 via superoxide ion and in a sub-stoichiometric fashion while antibodies under similar conditions were producing catalytic amounts (Wentworth et al., Science 293(5536):1806-11 (2001); McCormick et al., Journal of the American Chemical Society 100:312-313 (1978)). To test the susceptibility of free L-Trp under pharmaceutically relevant conditions, such as under both ICH and ambient light conditions, formulations comprising 0.32 mM to 7.5 mM of L-Trp were exposed for 3 hours at 250 W/m^2 UV light and about 150 k lux visible light. Samples were taken and analyzed immediately via the Amplex assay to detect the amount of H2O2 generated under these conditions. […] When L-Trp was incubated with a combination of 50 mM NaN3 and 150 U superoxide dismutase (SOD) or SOD alone, significant amounts of H2O2 were still detected in the samples not containing NaN3.

mAb1 = mAb1 Fenton stress study (H2O2 + Fe); Fab/Fc oxidation by RP-HPLC; format: physicochemical, human; conditions: 1 mM, 10 ppm H2O2, 0.2 mM Fe(III), 40° C. for 3 hours
Procedure: Antioxidants were added at a final concentration of 1 mM. […] After incubation, each reaction was quenched by addition of 100 mM L-Met and then prepared for analysis by reverse-phase HPLC as described above.
The Fenton reaction, using a mixture of H2O2 and Fe ions, generates oxidation through a metal catalyzed, hydroxyl radical reaction (Prousek et al., Pure and Applied Chemistry 79(12):2325-2338 (2007)). This reaction generated Fab, i.e. tryptophan, oxidation in mAb1. The reaction was also carried out in the presence of select antioxidants that were useful against both AAPH and light induced oxidation as reported above. Data related to the antioxidant properties against Fenton mediated reaction were analyzed using the RP-HPLC assay as described above. The Fenton reaction used 10 ppm of H2O2 and 0.2 mM of Fe(III). The reaction was incubated at 40° C. for 3 hours, quenched with 100 mM L-Met and analyzed using RP-HPLC after papain digest. All samples were the average of three separate vials, and mAb1 control (Ref Mat) was one vial with five independent injections on the HPLC. […] In regards to protection against Fc oxidation, the tested excipients (other than salicylic acid) performed slightly better than L-Trp.

N[C@@H](Cc1c[nH]c2ccccc12)C(=O)O [L-Trp, L-Tryptophan]
H2O2 generated by free L-Trp upon light exposure ([1]; 0.32 mM to 7.5 mM L-Trp, 3 hours at 250 W/m^2 UV light and about 150 k lux visible light): large quantity of H2O2 | H2O2 generation by L-Trp in the presence of sodium azide ([1]; 50 mM sodium azide, 3 hours light): reduced greatly | Protection of Fab oxidation with respect to the no excipient case (mAb1): about 25%
